Results from patent publication US7855232B2, “Organoselenium compound for cancer chemoprevention” (LKT Laboratories, Inc., priority 2001, dated 2010).
Marks after values point to notes of the source that are not given here.

Tests used:
Format in all cases: in vivo, Female A/J mice
[1] = system: Glutathione S-Transferase; assay: Glutathione S-transferase (GST) activity in tissue cytosol of treated mice, CDNB substrate; conditions: for Ratio Test/con (GST): gavage; for GST act.: gavage in corn oil
Description: The activity of cytosolic was assayed according to the method of Habig et al. using 1-chloro-2,4-dinitrobenzene (CDNB) as the substrate. Habig et al, J. Biol. Chem. 249:7130-7139 (1974). The complete solution contains, in a total volume of 2.0 mL, 0.1 M phosphate buffer, pH 6.5, 5 mM glutathione, 1 mM CDNB, and 20 μL of the cytosol. The reaction was monitored at 340 nm in a Beckman Model DU65 UV-VIS spectrophotometer. Assays were performed at 30° C. Complete assay mixture without the cytosolic enzyme was used as the reference blank. Data as analyzed by the Student's “t” test and P values were obtained in comparison to the control.

GSH = assay: Glutathione (GSH) concentration in tissues of treated mice, HPLC; conditions: for Ratio Test/con (GSH): gavage; for GSH conc.: gavage in corn oil
Description: GSH was quantitated by modification of the procedure Siller-Cepeda et al. Plant Cell Physiol. 32:1179-1185 (1991). Aliquots of tissue homogenates were mixed with equal volumes of 20% PCA containing 2 mM BPDS. Vortex, centrifuge at 7800×g for 15 minutes at 4° C. and 250 μl supernatant transferred into a microfuge tube containing 25 μl of γ-glu-glu as internal standard. The samples were carboxymethylated with 25 μl of 100 mM iodoacetic acid dissolved in 0.2 mM m-cresol purple sodium salt solution. The pH of the solution was adjusted to 9-10 by adding 350 μl of KOH (2M)-KHCO3 (2.4 M) mixture and incubated in the dark for 15 minutes. After carboxymethylation, the samples were derivatized with 500 μl of 1% dinitrofluorobenzene (DNFB) and kept in the dark at 4° C. overnight. The samples were centrifuged at 13,000×g for 15 minutes, filtered through 0.2 μm filter, and were analyzed with a SHIMADZU two-pump gradient HPLC system. Samples were injected by a SHIMADZU SIL-10AV Autoinjector onto a Varian 3-aminopropyl MICROSORB-MV column (4.6×250 mm) operated at ambient temperature with a flow rate of 1 ml/min. Absorbance of the dinitrophenyl derivatives was monitored at 365 nm. The amount of GSH was calculated from a standard curve using γ-glu-glu as internal standard.

[2] = system: UDP-Glucuronosyltransferase (UDP-GT); assay: UDP-glucuronosyltransferase (UDP-GT) activity in liver microsomes of treated mice, o-aminophenol substrate; conditions: for Ratio Test/con (UDP-GT): gavage; for UDP-GT activity (column head prints GSH conc.): gavage in corn oil
Description: Microsomal samples were assayed for enzymatic conjugation by modifying the procedure of Zakim et al., Methods of Biochemical Analysis, ed. David Glick, 21:1-37, (1973). using o-aminophenol as the substrate. The complete assay solution contains, in a total volume of 500 μl, 0.25 M phosphate buffer (pH 7.6), 0.002 M o-aminophenol, 0.05 M UDPGA, 0.125 M magnesium chloride and 100 μl microsomes. The mixture was incubated for 30 minutes. Reactions were stopped by the addition of 500 μl of TCA-sodium phosphate reagent. The precipitated protein was removed, 100 μl of 0.05% sodium nitrite was added to 950 μl of the supernatent solution and allowed to stand for 5 minutes. 100 μl of 0.5% ammonium sulfamate was added, after 5 minutes. 100 μl of 0.12% N-(-1-naphthyl)ethylenediamine dihydrochloride was added and incubated for 2 hours in the dark; and the difference in the optical density between the blanks and the samples were recorded at 555 nm in a Beckman model DU65 UV-VIS spectrophotometer. The UDP-GT activity was calculated using the extinction coefficient 29 mM-1 cm-1 for the coupled product.

[3] = colon, dose 0.02 mmol/Kg body weight
[4] = colon, dose 0.04 mmol/Kg body weight
[5] = forestomach, dose 0.02 mmol/Kg body weight
[6] = forestomach, dose 0.04 mmol/Kg body weight
[7] = liver, dose 0.02 mmol/Kg body weight
[8] = liver, dose 0.04 mmol/Kg body weight
[9] = lung, dose 0.02 mmol/Kg body weight
[10] = lung, dose 0.04 mmol/Kg body weight
[11] = small intestinal mucosa, dose 0.02 mmol/Kg body weight
[12] = small intestinal mucosa, dose 0.04 mmol/Kg body weight

SMILES: [Se]=C=NCc1ccc(CN=C=[Se])[se]1 [(7) SDMISC, selenophenyl-2,5-di-methylene isoselenocyanate]
- dose response of GST induction (in words) ([1]; colon): dose response induction
- Ratio Test/con (GST) [1, 3]: 1.23
- GST act. [1, 3]: 0.80 ± 0.03 ^c μmol/min mg protein
- Ratio Test/con (GST) [1, 4]: 1.34
- GST act. [1, 4]: 0.87 ± 0.03 ^e μmol/min mg protein
- Ratio Test/con (GST) [1, 5]: 1.10
- GST act. [1, 5]: 1.22 ± 0.21 μmol/min mg protein
- Ratio Test/con (GST) [1, 6]: 1.14
- GST act. [1, 6]: 1.27 ± 0.28 μmol/min mg protein
- Ratio Test/con (GST) [1, 7]: 2.39
- GST act. [1, 7]: 3.06 ± 0.41 ^e μmol/min mg protein
- Ratio Test/con (GST) [1, 8]: 2.34
- GST act. [1, 8]: 3.00 ± 0.13 ^c μmol/min mg protein
- Ratio Test/con (GST) [1, 9]: 1.31
- GST act. [1, 9]: 0.45 ± 0.04 ^f μmol/min mg protein
- Ratio Test/con (GST) [1, 10]: 1.16
- GST act. [1, 10]: 0.40 ± 0.04 μmol/min mg protein
- Ratio Test/con (GST) [1, 11]: 2.26
- GST act. [1, 11]: 0.50 ± 0.14 ^e μmol/min mg protein
- Ratio Test/con (GST) [1, 12]: 2.82
- GST act. [1, 12]: 0.62 ± 0.04 ^c μmol/min mg protein
- Ratio Test/con (GST) ([1]; small intestinal mucosa, dose 0.04 mmol/Kg body weight, listed as SDMISC 7): 2.83
- Ratio Test/con (GSH) (GSH; [7]): 1.30
- GSH conc. (GSH; [7]): 4.63 ± 1.30 μmol/gm tissue weight
- Ratio Test/con (GSH) (GSH; [8]): 1.20
- GSH conc. (GSH; [8]): 4.25 ± 1.02 μmol/gm tissue weight
- Ratio Test/con (GSH) (GSH; [11]): 1.36
- GSH conc. (GSH; [11]): 2.86 ± 0.14^c μmol/gm tissue weight
- Ratio Test/con (GSH) (GSH; [12]): 1.90
- GSH conc. (GSH; [12]): 4.00 ± 0.35^d μmol/gm tissue weight
- Ratio Test/con (UDP-GT) ([2]; dose 0.02 mmol/Kg body weight): 2.56
- UDP-GT activity (column head prints GSH conc.) ([2]; dose 0.02 mmol/Kg body weight): 10.37 ± 1.99 ^d nmol/min/mg protein
- Ratio Test/con (UDP-GT) ([2]; dose 0.04 mmol/Kg body weight): 1.60
- UDP-GT activity (column head prints GSH conc.) ([2]; dose 0.04 mmol/Kg body weight): 6.46 ± 1.95 nmol/min/mg protein

SMILES: N#C[Se]Cc1ccc(C[Se]C#N)cc1 [p-XSC, 1,4-phenylenebis(methylene)selenocyanate, reference compound]
- Ratio Test/con (GST) [1, 3]: 1.10
- GST act. [1, 3]: 0.72 ± 0.07 μmol/min mg protein
- Ratio Test/con (GST) [1, 5]: 0.88
- GST act. [1, 5]: 0.98 ± 0.27 μmol/min mg protein
- Ratio Test/con (GST) [1, 7]: 1.28
- GST act. [1, 7]: 1.64 ± 0.45 μmol/min mg protein
- Ratio Test/con (GST) [1, 9]: 1.41
- GST act. [1, 9]: 0.48 ± 0.13 μmol/min mg protein
- Ratio Test/con (GST) [1, 11]: 0.95
- GST act. [1, 11]: 0.21 ± 0.06 μmol/min mg protein
- induction of GST activity (in words) ([1]; tissues of A/J mice): failed to induce a significant increase
- Ratio Test/con (GSH) (GSH; [8]): 0.99
- GSH conc. (GSH; [8]): 3.50 ± 0.75 μmol/gm tissue weight
- Ratio Test/con (GSH) (GSH; [12]): 0.91
- GSH conc. (GSH; [12]): 1.93 ± 0.54 μmol/gm tissue weight
- increase of GSH concentration (in words) (GSH; tissues of A/J mice): failed to induce a significant increase
- Ratio Test/con (UDP-GT) ([2]; dose 0.04 mmol/Kg body weight): 1.88
- UDP-GT activity (column head prints GSH conc.) ([2]; dose 0.04 mmol/Kg body weight): 7.60 ± 2.47 ^d nmol/min/mg protein
